Measurements: ChEMBL document CHEMBL4842348 (J Med Chem, 2021)

Tests used:
[1] = Cmax in fasted dog at 1 mg/kg, po in Imwitor/Tween; type: ADME, organism-based, Canis lupus familiaris; set-up: route oral, dose 1 mg/kg; details: in vivo
[2] = Tmax in WH rat at 2 mg/kg, po; type: ADME, organism-based; details: in vivo
[3] = MRT in […] rhesus monkey at 0.5 mg/kg, iv; type: ADME, organism-based, Macaca mulatta; details: in vivo
[4] = Drug recovery in bile duct cannulated single po dosed WH rat assessed as recovered parent compound in feces relative to total recovery; type: ADME, organism-based; details: in vivo
[5] = Drug recovery in bile duct cannulated single po dosed rhesus monkey assessed as recovered glucuronide conjugate in bile relative to total recovery; type: ADME, organism-based, Macaca mulatta; details: in vivo
[6] = Tmax in CD1 mouse at 2 mg/kg, po; type: ADME, organism-based; details: in vivo
[7] = Drug recovery in bile duct cannulated single iv dosed WH rat assessed as recovered total feces radioactivity; type: ADME, organism-based; details: in vivo
[8] = Half life in lean wild type mouse liver at 10 mg/kg, po qd treated for 40 days; type: ADME, organism-based; details: time 40 day
[9] = Drug recovery in bile duct cannulated single po dosed WH rat assessed as recovered total bile radioactivity; type: ADME, organism-based; details: in vivo
[10] = Plasma clearance in WH rat at 1 mg/kg, iv; type: ADME, organism-based
[11] = Normalized AUC (0 to 72 hrs) in high fat diet fed dog at 1 mg/kg, po in Imwitor/Tween; type: ADME, organism-based, Canis lupus familiaris; details: in vivo
[12] = AUC (0 to infinitive) in rhesus monkey at 2 mg/kg, po; type: ADME, organism-based, Macaca mulatta; set-up: route oral, time infinity, dose 2 mg/kg; details: in vivo
[13] = Cmax in WH rat at 2 mg/kg, po; type: ADME, organism-based; set-up: route oral, dose 2 mg/kg; details: in vivo
[14] = Drug recovery in bile duct cannulated single po dosed WH rat assessed as recovered glucuronide conjugate in bile relative to total recovery; type: ADME, organism-based; details: in vivo
[15] = Drug recovery in bile duct cannulated single po dosed rhesus monkey assessed as recovered parent compound in bile relative to total recovery; type: ADME, organism-based, Macaca mulatta; details: in vivo
[16] = Drug recovery in bile duct cannulated single iv dosed WH rat assessed as recovered total bile radioactivity; type: ADME, organism-based; details: in vivo
[17] = Bioavailability in CD1 mouse at 1 mg/kg, iv and 2 mg/kg, po; type: ADME, organism-based; details: in vivo
[18] = Drug recovery in bile duct cannulated single po dosed WH rat assessed as recovered parent compound in bile relative to total recovery; type: ADME, organism-based; details: in vivo
[19] = Volume of distribution at steady state in rhesus monkey at 0.5 mg/kg, iv; type: ADME, organism-based, Macaca mulatta; details: in vivo, read-out: Vdss
[20] = Drug recovery in bile duct cannulated single po dosed WH rat assessed as recovered total feces radioactivity; type: ADME, organism-based; details: in vivo
[21] = Cmax in high fat diet fed dog at 1 mg/kg, po in Imwitor/Tween; type: ADME, organism-based, Canis lupus familiaris; set-up: route oral, dose 1 mg/kg; details: in vivo
[22] = Cmax in fasted dog at 1 mg/kg, po in 0.5% methocel; type: ADME, organism-based, Canis lupus familiaris; set-up: route oral, dose 1 mg/kg; details: in vivo
[23] = AUC (0 to infinitive) in CD1 mouse at 2 mg/kg, po; type: ADME, organism-based; set-up: route oral, time infinity, dose 2 mg/kg; details: in vivo

- Cmax [1]: 1500 nM
- Tmax [2]: 4 h
- MRT [3]: 60 h
- Drug recovery [4]: > 98%
- Drug recovery [5]: > 96%
- Tmax [6]: 2.7 h
- Drug recovery [7]: 15%
- half-life [8]: 1.5 h
- Drug recovery [9]: > 99%
- clearance [10]: 3.1 mL/min/kg
- AUC/dose [11]: 22 µM·kg·h/mg
- AUC(0-inf) [12]: 11 µM·h
- Cmax [13]: 400 nM
- Drug recovery [14]: > 98%
- Drug recovery [15]: < 1%
- Drug recovery [16]: 67%
- bioavailability [17]: 43%
- Drug recovery [18]: < 2%
- Vd [19]: 1.3 L/kg
- Drug recovery [20]: 46%
- Cmax [21]: 1300 nM
- Cmax [22]: 500 nM
- AUC(0-inf) [23]: 7.9 µM·h
SMILES: COc1ncc(-c2ccc(C(=O)O)cc2C)cc1-c1ccc(C(F)(F)F)cc1[C@@H]1CC[C@H]2[C@@H](c3cc(C(F)(F)F)cc(C(F)(F)F)c3)OC(=O)N12
